From patent US6964780B1, “Controlled-release pharmaceutical formulations” (Pfizer Inc., priority 1998, dated 2005) come the findings set out here.

Each structure is given as a SMILES string. Where a name gives a salt, the structure may show the parent alone.

The nature of this series: solubility of sildenafil citrate as a function of pH. Format: physicochemical. The settings on record: at pH values greater than 6. An excerpt:
Matrix formulations according to the present invention may contain a buffering agent. This is particularly useful when the formulation contains sildenafil citrate. A buffering agent of particular interest is aspartic acid. When it forms part of a matrix tablet, aspartic acid acts as a buffering agent to maintain a low pH at the surface of the tablet. […] When present, aspartic acid will typically make up 15–30% by weight of the formulation.

For the compound `CCCc1nn(C)c2c(=O)[nH]c(-c3cc(S(=O)(=O)N4CCN(C)CC4)ccc3OCC)nc12` [sildenafil citrate, Sildenafil citrate], the solubility entry is listed as “low solubility”.
